Measured values reported in publication PMC5513037, “Examining the influence of specificity ligands and ATP-competitive ligands on the overall effectiveness of bivalent kinase inhibitors” (Proteome Science, 2017).

Legend:
Assay in all cases: KAM-matrix competition in K562 lysate;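 for 0.001 uM KAM: median log10 fold change of treatment over DMSO control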;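 for 0.01 uM KAM: median log10 fold change of treatment over DMSO control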;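 for 0.1 uM KAM: median log10 fold change of treatment over DMSO control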;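 for 1 uM KAM: median log10 fold change of treatment over DMSO control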;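 for 10 uM KAM: median log10 fold change of treatment over DMSO control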
Type in all cases: binding
ATR = target: T1, ATR (Homo sapiens, UniProt Q13535);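 for 0.001 uM KAM: median log10 fold change of treatment over DMSO control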;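 for 0.01 uM KAM: median log10 fold change of treatment over DMSO control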;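 for 0.1 uM KAM: median log10 fold change of treatment over DMSO control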;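 for 1 uM KAM: median log10 fold change of treatment over DMSO control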;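 for 10 uM KAM: median log10 fold change of treatment over DMSO control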
T1 construct: endogenous in cells; host or cells: K562
Method: (§1) Supplement 12953_2017_125_MOESM1_ESM.zip/MS_Supp Info.xlsx, sheet "KAM" | column: 10 uM KAM; 1 uM KAM; 0.1 uM KAM; 0.01 uM KAM; 0.001 uM KAM; RB50

CDK2 = target: T2, CDK2 (Homo sapiens, UniProt P24941)
T2 construct: endogenous in cells; host or cells: K562
Method: as §1

MAST4 = target: T3, MAST4 (Homo sapiens, UniProt O15021)
T3 construct: endogenous in cells; host or cells: K562
Method: as §1

NME3 = target: T4, NME3 (Homo sapiens, UniProt Q13232);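 for 0.001 uM KAM: median log10 fold change of treatment over DMSO control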;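 for 0.01 uM KAM: median log10 fold change of treatment over DMSO control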;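 for 0.1 uM KAM: median log10 fold change of treatment over DMSO control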;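 for 1 uM KAM: median log10 fold change of treatment over DMSO control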;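 for 10 uM KAM: median log10 fold change of treatment over DMSO control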
T4 construct: endogenous in cells; host or cells: K562
T4 sequence (Q13232 1-169): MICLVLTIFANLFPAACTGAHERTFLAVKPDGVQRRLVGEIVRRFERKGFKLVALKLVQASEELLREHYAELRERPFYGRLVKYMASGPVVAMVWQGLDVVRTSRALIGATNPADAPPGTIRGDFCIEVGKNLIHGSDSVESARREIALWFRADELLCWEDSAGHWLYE
Method: as §1

NTRK1 = target: T5, NTRK1 (Homo sapiens, UniProt P04629)
T5 construct: endogenous in cells; host or cells: K562
Method: as §1

STK17B = target: T6, STK17B (Homo sapiens, UniProt O94768)
T6 construct: endogenous in cells; host or cells: K562 cells (lysate)
T6 sequence (O94768 1-372): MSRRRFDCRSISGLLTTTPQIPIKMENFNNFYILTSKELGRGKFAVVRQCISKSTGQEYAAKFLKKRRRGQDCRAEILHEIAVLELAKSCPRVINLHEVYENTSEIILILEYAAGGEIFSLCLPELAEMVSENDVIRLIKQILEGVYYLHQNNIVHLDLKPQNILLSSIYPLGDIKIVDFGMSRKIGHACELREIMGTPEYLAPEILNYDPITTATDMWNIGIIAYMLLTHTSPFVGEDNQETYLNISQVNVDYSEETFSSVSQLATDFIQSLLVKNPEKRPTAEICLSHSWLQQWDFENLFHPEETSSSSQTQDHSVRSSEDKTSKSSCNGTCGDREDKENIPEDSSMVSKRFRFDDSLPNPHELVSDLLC
Method: as §1

TAOK2 = target: T7, TAOK2 (Homo sapiens, UniProt Q9UL54);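 for 0.001 uM KAM: median log10 fold change of treatment over DMSO control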;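 for 0.01 uM KAM: median log10 fold change of treatment over DMSO control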;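 for 0.1 uM KAM: median log10 fold change of treatment over DMSO control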;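 for 1 uM KAM: median log10 fold change of treatment over DMSO control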;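 for 10 uM KAM: median log10 fold change of treatment over DMSO control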
T7 construct: endogenous in cells; host or cells: K562
T7 sequence (Q9UL54 1-1235): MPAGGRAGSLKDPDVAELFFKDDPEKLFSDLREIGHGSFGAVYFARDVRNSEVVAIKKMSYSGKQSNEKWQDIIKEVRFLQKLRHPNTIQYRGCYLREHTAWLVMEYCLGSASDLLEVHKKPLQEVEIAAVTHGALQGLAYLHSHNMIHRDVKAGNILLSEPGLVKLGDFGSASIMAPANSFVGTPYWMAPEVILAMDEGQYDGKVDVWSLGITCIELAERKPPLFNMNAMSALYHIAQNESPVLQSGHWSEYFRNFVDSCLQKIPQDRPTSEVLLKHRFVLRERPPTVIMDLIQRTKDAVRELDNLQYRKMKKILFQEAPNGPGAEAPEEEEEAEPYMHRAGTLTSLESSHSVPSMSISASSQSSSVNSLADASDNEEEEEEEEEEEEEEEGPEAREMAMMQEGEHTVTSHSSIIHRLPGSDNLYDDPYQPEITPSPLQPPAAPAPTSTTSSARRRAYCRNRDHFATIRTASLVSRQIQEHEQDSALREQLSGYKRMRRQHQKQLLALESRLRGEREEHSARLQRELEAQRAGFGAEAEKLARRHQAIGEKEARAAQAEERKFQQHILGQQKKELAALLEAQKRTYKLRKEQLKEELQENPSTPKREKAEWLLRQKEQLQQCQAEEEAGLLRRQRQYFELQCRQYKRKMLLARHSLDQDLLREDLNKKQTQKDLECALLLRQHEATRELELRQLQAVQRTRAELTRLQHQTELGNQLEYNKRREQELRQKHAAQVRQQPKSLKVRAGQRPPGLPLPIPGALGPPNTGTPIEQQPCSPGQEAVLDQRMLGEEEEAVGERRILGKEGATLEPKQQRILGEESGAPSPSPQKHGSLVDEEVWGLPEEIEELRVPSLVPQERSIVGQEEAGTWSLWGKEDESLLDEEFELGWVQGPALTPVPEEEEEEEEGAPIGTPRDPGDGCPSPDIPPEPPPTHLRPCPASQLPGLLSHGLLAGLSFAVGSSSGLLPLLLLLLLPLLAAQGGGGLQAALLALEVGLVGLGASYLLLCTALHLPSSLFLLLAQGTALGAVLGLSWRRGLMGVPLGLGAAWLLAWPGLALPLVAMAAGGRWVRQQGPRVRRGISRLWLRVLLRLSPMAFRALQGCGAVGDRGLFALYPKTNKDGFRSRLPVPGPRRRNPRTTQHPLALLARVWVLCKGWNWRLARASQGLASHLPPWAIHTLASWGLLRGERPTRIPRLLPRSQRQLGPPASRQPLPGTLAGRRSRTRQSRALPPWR
Method: as §1

TRIM28 = target: T8, TRIM28 (Homo sapiens, UniProt Q13263);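 for 0.001 uM KAM: median log10 fold change of treatment over DMSO control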;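 for 0.01 uM KAM: median log10 fold change of treatment over DMSO control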;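 for 0.1 uM KAM: median log10 fold change of treatment over DMSO control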;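 for 1 uM KAM: median log10 fold change of treatment over DMSO control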;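 for 10 uM KAM: median log10 fold change of treatment over DMSO control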
T8 construct: endogenous in cells; host or cells: K562
Method: as §1

[1] = KAM 0.001-10 uM, read-out: RB50 (the source's name)
[2] = read-out: RB50 (the source's name)

T1 sequence (Q13535 whole entry): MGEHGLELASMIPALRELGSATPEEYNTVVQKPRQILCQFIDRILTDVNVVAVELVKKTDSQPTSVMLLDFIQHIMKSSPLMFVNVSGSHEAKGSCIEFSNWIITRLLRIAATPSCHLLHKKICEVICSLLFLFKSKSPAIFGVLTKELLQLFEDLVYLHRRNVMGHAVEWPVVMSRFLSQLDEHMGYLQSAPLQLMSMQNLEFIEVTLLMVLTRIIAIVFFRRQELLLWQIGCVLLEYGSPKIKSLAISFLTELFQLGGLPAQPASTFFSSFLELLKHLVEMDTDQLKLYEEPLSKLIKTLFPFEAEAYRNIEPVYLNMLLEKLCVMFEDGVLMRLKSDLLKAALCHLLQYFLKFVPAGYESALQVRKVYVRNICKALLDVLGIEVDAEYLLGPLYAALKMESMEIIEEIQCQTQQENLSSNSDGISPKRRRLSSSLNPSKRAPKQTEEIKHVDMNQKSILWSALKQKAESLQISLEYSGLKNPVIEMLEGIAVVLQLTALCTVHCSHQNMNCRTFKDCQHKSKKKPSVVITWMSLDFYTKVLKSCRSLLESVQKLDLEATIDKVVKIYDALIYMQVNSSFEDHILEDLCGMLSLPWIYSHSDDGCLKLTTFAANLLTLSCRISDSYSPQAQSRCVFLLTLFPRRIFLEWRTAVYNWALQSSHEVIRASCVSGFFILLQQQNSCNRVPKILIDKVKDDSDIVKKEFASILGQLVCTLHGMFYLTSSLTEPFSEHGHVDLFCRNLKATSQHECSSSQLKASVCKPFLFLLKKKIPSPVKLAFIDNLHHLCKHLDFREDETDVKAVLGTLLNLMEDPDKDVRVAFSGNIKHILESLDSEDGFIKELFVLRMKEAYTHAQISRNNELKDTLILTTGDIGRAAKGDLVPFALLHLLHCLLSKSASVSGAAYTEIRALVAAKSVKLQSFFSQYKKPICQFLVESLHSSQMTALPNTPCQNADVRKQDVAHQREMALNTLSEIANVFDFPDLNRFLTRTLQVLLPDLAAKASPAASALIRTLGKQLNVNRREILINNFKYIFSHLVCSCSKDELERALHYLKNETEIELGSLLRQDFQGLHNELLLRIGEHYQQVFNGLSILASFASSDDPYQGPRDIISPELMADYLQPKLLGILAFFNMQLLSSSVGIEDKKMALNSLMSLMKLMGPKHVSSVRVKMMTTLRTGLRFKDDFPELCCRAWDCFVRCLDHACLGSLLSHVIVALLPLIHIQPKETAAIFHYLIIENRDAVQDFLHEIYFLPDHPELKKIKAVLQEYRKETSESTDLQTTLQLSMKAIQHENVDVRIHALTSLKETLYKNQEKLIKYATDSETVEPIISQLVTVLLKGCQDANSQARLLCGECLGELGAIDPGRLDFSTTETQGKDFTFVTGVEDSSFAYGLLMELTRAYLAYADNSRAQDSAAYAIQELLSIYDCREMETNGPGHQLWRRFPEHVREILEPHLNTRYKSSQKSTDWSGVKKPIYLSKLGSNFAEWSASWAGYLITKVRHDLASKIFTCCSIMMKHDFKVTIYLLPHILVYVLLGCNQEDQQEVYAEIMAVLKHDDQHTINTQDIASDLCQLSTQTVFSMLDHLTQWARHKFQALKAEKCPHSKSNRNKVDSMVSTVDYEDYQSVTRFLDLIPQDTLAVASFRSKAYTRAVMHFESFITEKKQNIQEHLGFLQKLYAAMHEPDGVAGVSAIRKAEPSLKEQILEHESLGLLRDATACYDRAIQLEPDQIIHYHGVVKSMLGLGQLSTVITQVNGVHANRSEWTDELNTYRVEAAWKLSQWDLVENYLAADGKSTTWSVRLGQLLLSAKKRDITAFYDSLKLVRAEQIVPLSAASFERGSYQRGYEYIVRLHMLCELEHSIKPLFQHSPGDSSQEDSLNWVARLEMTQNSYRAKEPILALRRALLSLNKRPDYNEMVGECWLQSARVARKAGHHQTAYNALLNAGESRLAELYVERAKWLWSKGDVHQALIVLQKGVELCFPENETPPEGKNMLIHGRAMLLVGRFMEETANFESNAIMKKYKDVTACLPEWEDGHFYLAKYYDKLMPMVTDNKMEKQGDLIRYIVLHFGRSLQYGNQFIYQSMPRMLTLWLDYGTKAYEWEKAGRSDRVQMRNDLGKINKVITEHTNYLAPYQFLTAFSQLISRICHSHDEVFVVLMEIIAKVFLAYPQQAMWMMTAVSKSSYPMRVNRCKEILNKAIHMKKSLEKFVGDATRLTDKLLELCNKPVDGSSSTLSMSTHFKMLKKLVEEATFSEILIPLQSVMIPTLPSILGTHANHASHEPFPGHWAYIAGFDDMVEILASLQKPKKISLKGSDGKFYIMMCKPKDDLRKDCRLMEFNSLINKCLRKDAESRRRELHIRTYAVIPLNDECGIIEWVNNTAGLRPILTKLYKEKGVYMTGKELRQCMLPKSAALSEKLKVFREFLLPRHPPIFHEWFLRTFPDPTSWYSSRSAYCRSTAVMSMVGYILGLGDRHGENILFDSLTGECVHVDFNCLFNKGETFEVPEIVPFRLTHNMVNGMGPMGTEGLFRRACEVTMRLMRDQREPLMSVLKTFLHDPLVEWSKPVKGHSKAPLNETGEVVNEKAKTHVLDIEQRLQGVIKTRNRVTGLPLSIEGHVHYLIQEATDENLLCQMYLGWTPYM
T1 sequence (Q8WXE1 whole entry partner): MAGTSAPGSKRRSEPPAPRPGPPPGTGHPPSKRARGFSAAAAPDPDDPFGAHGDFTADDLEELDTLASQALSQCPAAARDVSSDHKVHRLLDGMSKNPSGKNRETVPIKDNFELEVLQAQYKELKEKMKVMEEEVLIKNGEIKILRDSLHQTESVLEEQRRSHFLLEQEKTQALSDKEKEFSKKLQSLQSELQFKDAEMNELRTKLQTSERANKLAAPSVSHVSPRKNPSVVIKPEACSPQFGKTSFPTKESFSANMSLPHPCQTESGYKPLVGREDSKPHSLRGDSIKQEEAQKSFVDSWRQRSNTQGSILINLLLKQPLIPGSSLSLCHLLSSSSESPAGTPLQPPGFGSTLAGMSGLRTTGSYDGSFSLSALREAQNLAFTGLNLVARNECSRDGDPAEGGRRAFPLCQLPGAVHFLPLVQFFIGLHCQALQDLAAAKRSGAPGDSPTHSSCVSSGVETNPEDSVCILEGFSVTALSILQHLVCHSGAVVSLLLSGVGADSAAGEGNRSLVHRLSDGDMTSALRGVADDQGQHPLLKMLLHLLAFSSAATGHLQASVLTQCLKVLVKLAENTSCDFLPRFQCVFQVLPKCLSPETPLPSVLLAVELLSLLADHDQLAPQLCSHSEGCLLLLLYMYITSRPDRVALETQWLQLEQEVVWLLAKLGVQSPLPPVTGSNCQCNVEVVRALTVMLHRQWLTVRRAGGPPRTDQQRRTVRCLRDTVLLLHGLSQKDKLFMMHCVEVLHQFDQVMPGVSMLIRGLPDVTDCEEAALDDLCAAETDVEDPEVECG
T5 sequence (P04629 33-796): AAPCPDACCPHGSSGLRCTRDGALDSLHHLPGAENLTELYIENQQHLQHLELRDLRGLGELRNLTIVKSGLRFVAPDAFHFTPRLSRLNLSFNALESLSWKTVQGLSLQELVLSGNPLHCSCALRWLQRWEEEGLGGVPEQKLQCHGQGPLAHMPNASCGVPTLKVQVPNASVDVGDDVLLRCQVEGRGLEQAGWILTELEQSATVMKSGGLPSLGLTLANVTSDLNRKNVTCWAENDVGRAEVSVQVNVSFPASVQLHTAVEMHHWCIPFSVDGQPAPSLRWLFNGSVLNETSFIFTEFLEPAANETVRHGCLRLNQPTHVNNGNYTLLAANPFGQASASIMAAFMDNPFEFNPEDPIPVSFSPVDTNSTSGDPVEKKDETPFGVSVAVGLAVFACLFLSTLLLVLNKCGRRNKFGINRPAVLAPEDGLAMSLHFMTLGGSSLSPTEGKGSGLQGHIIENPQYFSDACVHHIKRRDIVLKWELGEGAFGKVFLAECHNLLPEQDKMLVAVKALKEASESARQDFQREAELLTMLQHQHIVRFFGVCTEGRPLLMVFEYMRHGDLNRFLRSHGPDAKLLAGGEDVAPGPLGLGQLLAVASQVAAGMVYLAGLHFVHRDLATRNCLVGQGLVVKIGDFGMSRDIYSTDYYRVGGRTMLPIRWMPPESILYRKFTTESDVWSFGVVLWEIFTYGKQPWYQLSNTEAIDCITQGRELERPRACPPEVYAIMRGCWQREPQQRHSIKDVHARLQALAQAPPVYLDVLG
T8 sequence (Q13263 whole entry): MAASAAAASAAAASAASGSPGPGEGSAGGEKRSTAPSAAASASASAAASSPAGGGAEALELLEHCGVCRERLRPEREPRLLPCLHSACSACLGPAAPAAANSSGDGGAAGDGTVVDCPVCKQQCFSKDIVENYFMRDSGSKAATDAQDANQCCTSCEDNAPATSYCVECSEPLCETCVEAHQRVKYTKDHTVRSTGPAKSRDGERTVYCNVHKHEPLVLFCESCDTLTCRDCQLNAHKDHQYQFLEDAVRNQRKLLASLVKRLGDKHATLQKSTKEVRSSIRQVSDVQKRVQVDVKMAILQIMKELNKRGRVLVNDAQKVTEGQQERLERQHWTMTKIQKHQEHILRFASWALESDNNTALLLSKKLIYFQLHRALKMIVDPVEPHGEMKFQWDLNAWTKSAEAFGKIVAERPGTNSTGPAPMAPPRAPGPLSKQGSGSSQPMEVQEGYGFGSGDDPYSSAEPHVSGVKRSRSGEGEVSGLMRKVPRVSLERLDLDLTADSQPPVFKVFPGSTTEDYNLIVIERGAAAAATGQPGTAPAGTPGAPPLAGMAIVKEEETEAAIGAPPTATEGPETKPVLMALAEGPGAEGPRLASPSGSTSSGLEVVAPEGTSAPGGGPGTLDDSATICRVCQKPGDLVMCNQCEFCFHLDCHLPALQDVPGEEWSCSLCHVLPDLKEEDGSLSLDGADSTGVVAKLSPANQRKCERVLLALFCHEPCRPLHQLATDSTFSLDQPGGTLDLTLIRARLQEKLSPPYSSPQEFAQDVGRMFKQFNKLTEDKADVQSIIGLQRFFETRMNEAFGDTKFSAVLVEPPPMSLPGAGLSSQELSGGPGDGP

With `N#CCc1ccc(Nc2nc(NCCCN)cc(Nc3cc(C4CC4)[nH]n3)n2)cc1` [KAM] the IC50 (ATR; [1]) was greater than 10 µM, the “0.001 uM KAM” value (ATR; relative to 0 uM KAM = 0) was -0.04695 and the “0.01 uM KAM” value (ATR; relative to 0 uM KAM = 0) was 0.002576. The “0.1 uM KAM” value (ATR; relative to 0 uM KAM = 0) was -0.08926, the “1 uM KAM” value (ATR; relative to 0 uM KAM = 0) was -0.01418 and the “10 uM KAM” value (ATR; relative to 0 uM KAM = 0) was 0.03196. The “median Log10 fold change” value (CDK2; 0.001 uM KAM) was -0.01597, the “median Log10 fold change” value (CDK2; 0.01 uM KAM) was -0.009383 and the “median Log10 fold change” value (CDK2; 0.1 uM KAM) was -0.2687. For the same compound, the “median Log10 fold change” value (CDK2; 1 uM KAM) was -0.5288, the “median Log10 fold change” value (CDK2; 10 uM KAM) was -0.6805 and the IC50 (CDK2; [2]) was 0.177 µM. For the same compound, the “median Log10 fold change” value (MAST4; 0.001 uM KAM) was -0.03696, the “median Log10 fold change” value (MAST4; 0.01 uM KAM) was 0.002822 and the “median Log10 fold change” value (MAST4; 0.1 uM KAM) was -0.135. For the same compound, the “median Log10 fold change” value (MAST4; 1 uM KAM) was -0.3289, the “median Log10 fold change” value (MAST4; 10 uM KAM) was -0.3337 and the IC50 (MAST4; [2]) was 1.26 µM. For the same compound, the IC50 (NME3; [1]) was greater than 10 µM, the “0.001 uM KAM” value (NME3; relative to 0 uM KAM = 0) was -0.01588 and the “0.01 uM KAM” value (NME3; relative to 0 uM KAM = 0) was -0.01222. The “0.1 uM KAM” value (NME3; relative to 0 uM KAM = 0) was -0.05319, the “1 uM KAM” value (NME3; relative to 0 uM KAM = 0) was 0.05076 and the “10 uM KAM” value (NME3; relative to 0 uM KAM = 0) was 0.01706. For the same compound, the “median Log10 fold change” value (NTRK1; 0.001 uM KAM) was -0.002125, the “median Log10 fold change” value (NTRK1; 0.01 uM KAM) was -0.003481 and the “median Log10 fold change” value (NTRK1; 0.1 uM KAM) was -0.123. The “median Log10 fold change” value (NTRK1; 1 uM KAM) was -0.3463, the “median Log10 fold change” value (NTRK1; 10 uM KAM) was -0.5086 and the IC50 (NTRK1; [2]) was 0.869 µM. The “median Log10 fold change” value (STK17B; 0.001 uM KAM) was 0.02659, the “median Log10 fold change” value (STK17B; 0.01 uM KAM) was 0.008023 and the “median Log10 fold change” value (STK17B; 0.1 uM KAM) was -0.1097. For the same compound, the “median Log10 fold change” value (STK17B; 1 uM KAM) was -0.3588, the “median Log10 fold change” value (STK17B; 10 uM KAM) was -0.5971 and the IC50 (STK17B; [2]) was 0.799 µM. For the same compound, the IC50 (TAOK2; [1]) was 6.63 µM, the “0.001 uM KAM” value (TAOK2; relative to 0 uM KAM = 0) was -0.0603 and the “0.01 uM KAM” value (TAOK2; relative to 0 uM KAM = 0) was -0.04102. For the same compound, the “0.1 uM KAM” value (TAOK2; relative to 0 uM KAM = 0) was -0.1359, the “1 uM KAM” value (TAOK2; relative to 0 uM KAM = 0) was -0.1664 and the “10 uM KAM” value (TAOK2; relative to 0 uM KAM = 0) was -0.2974. For the same compound, the IC50 (TRIM28; [1]) was greater than 10 µM, the “0.001 uM KAM” value (TRIM28; relative to 0 uM KAM = 0) was 0.05535 and the “0.01 uM KAM” value (TRIM28; relative to 0 uM KAM = 0) was 0.00293. The “0.1 uM KAM” value (TRIM28; relative to 0 uM KAM = 0) was 0.1066, the “1 uM KAM” value (TRIM28; relative to 0 uM KAM = 0) was 0.08268 and the “10 uM KAM” value (TRIM28; relative to 0 uM KAM = 0) was 0.08032.
